Reference: ChEMBL document CHEMBL1144812, “Small molecules with structural similarities to siderophores as novel antimicrobials against Mycobacterium tuberculosis and Yersinia pestis” (Bioorg Med Chem Lett, 2008)
pIC50: −log10 of the molar value.

Columns and labels:
[1] = target: T1, AMP-binding enzyme family protein (Yersinia pestis, UniProt Q56950); assay: Inhibition of Yersinia pestis YbtE assessed as incorporation of [3H]salicyl group to HMWP2 protein
T1 sequence (Q56950 whole entry): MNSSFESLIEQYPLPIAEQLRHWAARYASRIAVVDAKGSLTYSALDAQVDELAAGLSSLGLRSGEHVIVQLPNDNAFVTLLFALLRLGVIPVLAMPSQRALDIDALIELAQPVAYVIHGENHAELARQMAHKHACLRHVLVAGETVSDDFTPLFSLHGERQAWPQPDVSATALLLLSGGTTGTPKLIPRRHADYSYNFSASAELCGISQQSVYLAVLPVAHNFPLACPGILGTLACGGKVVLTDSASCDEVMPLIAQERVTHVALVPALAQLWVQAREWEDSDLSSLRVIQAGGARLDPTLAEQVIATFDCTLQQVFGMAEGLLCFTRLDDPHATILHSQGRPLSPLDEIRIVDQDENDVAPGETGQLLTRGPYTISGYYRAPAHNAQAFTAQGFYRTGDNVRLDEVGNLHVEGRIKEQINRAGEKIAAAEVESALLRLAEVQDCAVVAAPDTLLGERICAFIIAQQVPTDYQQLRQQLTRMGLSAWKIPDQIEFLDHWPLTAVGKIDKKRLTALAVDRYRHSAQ

[2] = tested on: Mycobacterium tuberculosis; assay: Antimycobacterial activity against Mycobacterium tuberculosis H37Rv in presence of iron rich GAST-D medium; type: functional, organism-based
[3] = tested on: Mycobacterium tuberculosis; assay: Antimycobacterial activity against Mycobacterium tuberculosis H37Rv in presence of iron deficient GAST-D medium; type: functional, organism-based
Yersinia pestis [4] = assay: Antimicrobial activity against Yersinia pestis KIM6-2082.1+ in presence of iron rich PMH-D medium; type: functional, organism-based
Yersinia pestis [5] = assay: Antimicrobial activity against Yersinia pestis KIM6-2082.1+ in presence of iron limiting PMH-D medium; type: functional, organism-based
Yersinia pestis [6] = assay: Ratio of MIC90 for Yersinia pestis KIM6-2082.1+ in iron rich PMH-D medium to MIC90 for Yersinia pestis KIM6-2082.1+ in presence of iron limiting PMH-D medium; type: functional
[7] = Cytotoxicity against human HeLa cells after 24 hrs; type: cell-based; conditions: read-out: CD50
[8] = tested on: Mycobacterium tuberculosis; assay: Ratio of MIC90 for Mycobacterium tuberculosis H37Rv in iron rich GAST-D medium to MIC90 for Mycobacterium tuberculosis H37Rv in presence of iron limiting GAST-D medium; type: functional

| SMILES | pIC50 [1] | pIC50 [2] | MIC90 [2] | pIC50 [3] | MIC90 [3] | pIC50 (Yersinia pestis [4]) | MIC90 (Yersinia pestis [4]) | pIC50 (Yersinia pestis [5]) | MIC90 (Yersinia pestis [5]) | Ratio (Yersinia pestis [6]) | CC50 at 24 h [7] | Ratio [8] |
| --- | --- | --- | --- | --- | --- | --- | --- | --- | --- | --- | --- | --- |
| COc1ccc(NC(=S)N2N=C(c3ccccc3O)C[C@H]2c2ccc(O)c(OC)c2)cc1 | 6.30 | ≤ 3.30 | ≥ 500 µM | ≤ 3.30 | ≥ 500 µM | < 3.82 | > 150 µM | 6.22 | 2 µM | >75 | 25 µM | – |
| COc1ccccc1NC(=S)N1N=C(c2ccccc2O)C[C@H]1c1ccccc1O | 6.10 | ≤ 3.30 | ≥ 500 µM | ≤ 3.30 | ≥ 500 µM | < 5.30 | > 5 µM | 5.70 | 5 µM | >1 | 15 µM | – |
| Oc1ccc([C@@H]2CC(c3ccccc3O)=NN2C(=S)Nc2ccccc2)cc1 | 6.40 | 5.40 | 12 µM | 5.52 | 13 µM | < 4.72 | > 19 µM | < 4.72 | > 19 µM | – | 42 µM | 1 |
| Oc1ccc([C@@H]2CC(c3ccccc3)=NN2C(=S)Nc2ccccc2)cc1 | < 4.90 | ≤ 3.30 | ≥ 500 µM | ≤ 3.30 | ≥ 500 µM | < 4.42 | > 38 µM | < 4.42 | > 38 µM | – | 29 µM | – |
| COc1cc([C@@H]2CC(c3ccccc3O)=NN2C(=S)Nc2ccccc2OC)ccc1O | 6.10 | ≤ 3.30 | ≥ 500 µM | ≤ 3.30 | ≥ 500 µM | < 5.05 | > 9 µM | 6.00 | 6 µM | >2 | 11 µM | – |
| Oc1ccccc1C1=NN(C(=S)Nc2ccccc2)[C@H](c2ccccc2Cl)C1 | 5.70 | ≤ 3.30 | ≥ 500 µM | ≤ 3.30 | ≥ 500 µM | < 5.30 | > 5 µM | < 5.30 | > 5 µM | – | 5 µM | – |
| COc1ccccc1[C@@H]1CC(c2ccccc2O)=NN1C(=S)Nc1ccccc1 | 5.52 | < 3.60 | > 250 µM | < 3.60 | > 250 µM | < 5.30 | > 5 µM | 6.40 | > 5 µM | – | 6 µM | – |
| COc1cc([C@@H]2CC(c3ccccc3O)=NN2C(=S)Nc2ccc(C)cc2)ccc1O | 6.30 | ≤ 3.30 | ≥ 500 µM | ≤ 3.30 | ≥ 500 µM | < 4.72 | > 19 µM | 6.00 | 2 µM | >10 | 16 µM | – |
| COc1ccc(NC(=S)N2N=C(c3ccccc3O)C[C@H]2c2ccc(O)cc2)cc1 | 5.15 | ≤ 3.30 | ≥ 500 µM | ≤ 3.30 | ≥ 500 µM | < 4.72 | > 19 µM | 6.15 | 2 µM | >10 | 4 µM | – |
| COc1ccccc1NC(=S)N1N=C(c2ccccc2O)C[C@H]1c1ccc(O)cc1 | 6.52 | ≤ 3.30 | ≥ 500 µM | ≤ 3.30 | ≥ 500 µM | < 4.72 | > 19 µM | 5.70 | 6 µM | >3 | 1 µM | – |
| CN[C@@H]1[C@H](O[C@H]2[C@H](O[C@H]3[C@H](O)[C@@H](O)[C@H](N=C(N)N)[C@@H](O)[C@@H]3N=C(N)N)O[C@@H](C)[C@]2(O)C=O)O[C@@H](CO)[C@H](O)[C@H]1O (stereo in doubt) [STREPTOMYCIN] | – | – | – | – | – | – | 0.2 µM | – | 0.2 µM | 1 | > 500 µM | – |
| C[C@@H]1C[C@@H]([C@H](O)CC2CC(=O)NC(=O)C2)C(=O)[C@@H](C)C1 [CYCLOHEXIMIDE] | – | – | – | – | – | – | – | – | – | – | 0.1 µM | – |
| CO[C@H]1/C=C/O[C@@]2(C)Oc3c(C)c(O)c4c(O)c(c(/C=N/N5CCN(C)CC5)c(O)c4c3C2=O)NC(=O)/C(C)=C\C=C\[C@H](C)[C@H](O)[C@@H](C)[C@@H](O)[C@@H](C)[C@H](OC(C)=O)[C@@H]1C [RIFAMPIN] | – | – | 0.008 µM | – | 0.008 µM | – | – | – | – | – | 190 µM | 1 |
